Measured values taken from patent publication US9149478B2, “Diabetes therapy” (Boehringer Ingelheim International GmbH, priority 2010, dated 2015).

Tests used:
[1] = in vivo; cited from earlier work
[2] = Safety and tolerability in people with type 2 diabetes
[3] = Pharmacokinetic profile of linagliptin (general statement); details: in vivo
[4] = Pharmacokinetics of BI 1356 after multiple oral doses once daily for 12 days in patients with type 2 diabetes; details: for feτ,ss: steady state (Day 12); for feτ,ss / fe0-24: gMean (gCV); for fe0-24: fraction excreted in urine
[5] = system: non-obese-diabetic (NOD) mice; test: Onset of diabetes and stereological pancreas assessment in NOD mice over 60 days; assay type: in vivo, mouse; details: female NOD mice
Source text: Though reduced pancreatic T-cell migration and altered cytokine production is considered important players for the onset of insulinitis the exact mechanism and effects on the pancreatic cell pool is still incompletely understood.
Bi-weekly plasma samples are obtained to determine onset of diabetes (BG>11 mmol/l).

| Molecule | duration of action [1] | safety and tolerability [2] | half-life [3] | feτ,ss ([4]; 1 mg oral once daily) | feτ,ss ([4]; 2.5 mg oral once daily) | fe0-24 ([4]; 2.5 mg oral once daily) | feτ,ss ([4]; 5 mg oral once daily) | fe0-24 ([4]; 5 mg oral once daily) | feτ,ss ([4]; 10 mg oral once daily) | fe0-24 ([4]; 10 mg oral once daily) | mean accumulation ratio RA,AUC ([4]; doses above 1 mg, oral once daily) | excreted via the kidney ([4]; therapeutic oral dose levels) | route of excretion ([4]; therapeutic oral dose levels) | incidence of diabetes (BG>11 mmol/l) at the end of the study period ([5]; 0.083 g linagliptin/kg chow (3-10 mg/kg p.o.), 60 days) | beta cell mass (insulin immunoreactivity) ([5]; linagliptin in chow, 60 days, stereology) | active plasma GLP-1 at termination ([5]; linagliptin in chow, versus control) |
| --- | --- | --- | --- | --- | --- | --- | --- | --- | --- | --- | --- | --- | --- | --- | --- | --- |
| N^εB29-(N^α-(ω-carboxypentadecanoyl)-L-γ-glutamyl) des(B30) human insulin [Insulin degludec] | more than 24 hours | – | – | – | – | – | – | – | – | – | – | – | – | – | – | – |
| CC#CCn1c(N2CCC[C@@H](N)C2)nc2c1c(=O)n(Cc1nc(C)c3ccccc3n1)c(=O)n2C [BI 1356, 1-[(4-methyl-quinazolin-2-yl)methyl]-3-methyl-7-(2-butyn-1-yl)-8-(3-(R)-amino-piperidin-1-yl)-xanthine] | – | placebo-like safety and tolerability | ≤ 72 h | 3.34 (38.3) % | 3.06 (45.1) % | 0.139 (51.2) % | 6.27 (42.2) % | 0.453 (125) % | 3.22 (34.2) % | 0.919 (115) % | ≤ 1.4 | < 7 % of the administered oral dose | primarily excreted unchanged via the bile | 9 out of 30 | 0.48 ± 0.09 mg | higher |
